Key:
[1] = target: T1, human Adenosine A3 receptor (Homo sapiens, UniProt P0DMS8); assay: In vitro affinity for human adenosine-A3 receptors (radioligand [125I]-AB-MECA); assay type: binding; parameters: expressed in transfected cells; host or cells: HEK 293 cells (membrane preparations); settings: membranes of HEK 293 cells stably expressing human A3, [125I]-AB-MECA, 22° C., 90 minutes; for Ki: read-out: Adenosine receptor affinity (binding) A3 pKi (converted)
T1 sequence (P0DMS8 1-318): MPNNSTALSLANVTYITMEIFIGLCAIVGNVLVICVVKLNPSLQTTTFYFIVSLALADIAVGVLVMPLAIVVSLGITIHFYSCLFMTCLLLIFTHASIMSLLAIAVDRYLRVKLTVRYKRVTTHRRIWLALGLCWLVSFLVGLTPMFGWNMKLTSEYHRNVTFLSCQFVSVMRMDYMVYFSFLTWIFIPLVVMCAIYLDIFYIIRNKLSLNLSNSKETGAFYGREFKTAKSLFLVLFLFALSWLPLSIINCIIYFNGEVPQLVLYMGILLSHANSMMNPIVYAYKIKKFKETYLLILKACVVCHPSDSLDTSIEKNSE
Protocol: Affinity of the compounds for human adenosine-A3 receptors was determined using the receptor binding assay described by C. A. Salvatore et al.: “Molecular cloning and characterization of the human A3 adenosine receptor”, Proc. Natl. Acad. Sci. USA, 90, 10365-10369, 1993. Briefly, membrane preparations were obtained from human recombinant (HEK 293) cells in which the human adenosine-A3 receptor was stably expressed. […] Separation of bound radioactivity from free was done by filtration through Packard GF/B glass fiber filters with several washings with ice-cold buffer using a Packard cell harvester. Bound radioactivity was measured with a scintillation counter (Topcount, Packard) using a liquid scintillation cocktail (Microscint 0, Packard). […] Determination of In Vitro Functional Activity on Human Adenosine A3 Receptors Using an Aequorin-based Assay

[2] = target: T2, human adenosine-A1 receptors (Homo sapiens, UniProt P30542); assay: In vitro affinity for human adenosine-A1 receptors (radioligand [3H]DPCPX); assay type: binding; settings: human recombinant receptors expressed in CHO cells; for Ki: read-out: Adenosine receptor affinity (binding) A1 pKi (converted)
T2 construct: expressed in transfected cells; host or cells: CHO cells
T2 sequence (P30542 1-326): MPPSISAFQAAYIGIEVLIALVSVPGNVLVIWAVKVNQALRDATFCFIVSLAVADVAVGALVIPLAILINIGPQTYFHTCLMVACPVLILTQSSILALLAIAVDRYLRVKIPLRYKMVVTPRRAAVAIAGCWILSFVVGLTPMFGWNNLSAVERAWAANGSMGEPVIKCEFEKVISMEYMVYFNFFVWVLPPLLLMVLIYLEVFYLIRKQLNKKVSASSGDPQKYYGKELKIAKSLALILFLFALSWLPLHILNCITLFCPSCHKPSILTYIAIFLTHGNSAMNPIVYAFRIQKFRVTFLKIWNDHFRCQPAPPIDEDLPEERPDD
Protocol: Affinity of the compounds for human adenosine-A1 receptors was determined using the receptor binding assay described by A. Townsend-Nicholson and P. R. Schofield (Biol. Chem., 269, 2373, 1994), using human recombinant receptors expressed in CHO cells, and [^3H]DPCPX as radioligand.

[3] = target: T3, human adenosine-A2A receptors (Homo sapiens, UniProt P29274); assay: In vitro affinity for human adenosine-A2A receptors (radioligand [3H]CGS 21680); assay type: binding; settings: human recombinant receptors expressed in HEK-293 cells; for Ki: read-out: Adenosine receptor affinity (binding) A2A pKi (converted)
T3 construct: expressed in transfected cells; host or cells: HEK-293 cells
T3 sequence (P29274 whole entry): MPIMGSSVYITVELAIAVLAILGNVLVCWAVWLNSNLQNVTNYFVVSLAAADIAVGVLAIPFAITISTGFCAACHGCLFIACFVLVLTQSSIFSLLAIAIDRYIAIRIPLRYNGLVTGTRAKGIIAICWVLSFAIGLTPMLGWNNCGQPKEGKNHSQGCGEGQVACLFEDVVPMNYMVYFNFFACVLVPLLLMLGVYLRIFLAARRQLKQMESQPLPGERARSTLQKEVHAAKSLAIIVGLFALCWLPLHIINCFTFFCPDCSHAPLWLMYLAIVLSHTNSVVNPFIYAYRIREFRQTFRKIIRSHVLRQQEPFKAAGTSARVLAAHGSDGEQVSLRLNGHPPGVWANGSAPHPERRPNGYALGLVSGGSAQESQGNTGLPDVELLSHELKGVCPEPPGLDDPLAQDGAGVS
Protocol: Affinity of the compounds for human adenosine-A2A receptors was determined using the receptor binding assay described by D. R. Luthin et al., (Mol. Pharmacol., 47, 307, 1995), using human recombinant receptors expressed in HEK-293 cells, and [^3H]CGS 21680 as radioligand.

[4] = target: T1, human Adenosine A3 receptor; assay: In vitro functional activity on human adenosine A3 receptors using an Aequorin-based assay; assay type: cell-based; parameters: A. et al. (Acc. Number GenBank: L22607); host or cells: CHO-K1 cells stably expressing mitochondrially targeted aequorin and Galpha16; settings: hA3-Aequorin CHO-K1 cells; for EC50: agonist mode, concentrations up to 10^−5 M, read-out: Functional activity A3 agonism pEC50 (converted); for Kb: antagonist mode, N6-benzyl-NECA as the agonist, read-out: Functional activity A3 antagonism pA2 (converted)
Source text: A stable monoclonal hA3-Aequorin cell line was provided by Euroscreen. The coding region encoding the human Adenosine A3 receptor was amplified by polymerase chain reaction (PCR), using human lung cDNA as template. The PCR product was ligated in the expression vector pEFIN3 (Invitrogen), and the complete sequence of the insert was then established. […] A. et al. (Acc. Number GenBank: L22607). The expression plasmid containing the coding sequence of the human Adenosine A3 receptor was transfected in CHO-K1 cells stably expressing mitochondrially targetted Aequorin and Gα16. Resistant clones were selected in the presence of 400 μg/ml G418 and isolated by limiting dilution. […] The hA3-Aequorin cells express mitochondrially targetted apo-Aequorin. Cells have to be loaded with coelenterazine, in order to reconstitute active Aequorin. After binding of agonists to the hA3 receptor, the intracellular calcium concentration increases, which leads to a luminescent response. Binding of calcium to the apo-Aequorin/coelenterazine complex leads to an oxidation reaction of coelenterazine, which results in the production of apo-Aequorin, coelenteramide, CO2 and light (λmax 469 nm). This luminescent response is dependent on the agonist concentration.
Assay-protocol: • Dilute the loaded cells 18× in Dulbecco's medium without PhenolRed (Gibco BRL), pre-heated to 37° C., resulting in a concentration of 2.8*10^5 cells/ml. • Stir for 1 hour at room temperature. • Add 10 μl compound or control per well in white 96-well plates. • Add 90 μl of diluted cells (2.5*10^4 cells/well). • Measure chemoluminescence immediately for 20 seconds. • In antagonist mode 50 μl 10^−6 N6-benzyl-NECA is added as the agonist. • Measure chemoluminescence immediately for 20 seconds using the MicroBetaJet (PerkinElmer).

Ki [1] | Ki [2] | Ki [3] | EC50 [4] | Kb [4] | Structure (SMILES) | Adenosine receptor affinity (binding) A3 pKi [1] | Adenosine receptor affinity (binding) A1 pKi [2] | Adenosine receptor affinity (binding) A2A pKi [3]
1.58 µM | 6.31 µM | > 10 µM | > 10 µM | 1.58 µM | Cn1c(-c2cccs2)nc2c(C(F)(F)F)nc(NCCc3ccccc3)nc21 [Compound 14, 8-(thien-2-yl)-6-trifluoromethyl-9-methyl-2-phenethylamino purine] |  |  | 
3.98 µM | > 10 µM | > 10 µM |  |  | Cn1c(/C=C/c2ccccc2)nc2c(C(F)(F)F)nc(NCCc3ccccc3)nc21 [Compound 21, 8-E-styryl-6-trifluoromethyl-9-methyl-2-phenethylamino purine] |  |  | 
3.98 µM | > 10 µM | > 10 µM |  |  | Cn1c(/C=C/c2ccc(C(F)(F)F)cc2)nc2c(C(F)(F)F)nc(NCCc3ccccc3)nc21 [Compound 24, 8-E-(4-trifluoromethylstyryl)-6-trifluoromethyl-9-methyl-2-phenethylamino purine] |  |  | 
2 µM | > 10 µM | > 10 µM | > 10 µM | 1 µM | Cn1c(/C=C\c2ccccc2)nc2c(C(F)(F)F)nc(NCCc3ccccc3)nc21 [Compound 22, 8-Z-styryl-6-trifluoromethyl-9-methyl-2-phenethylamino purine] |  |  | 
3.16 µM | > 10 µM | > 10 µM |  |  | Cn1c(N2CCCC2)nc2c(C(F)(F)F)nc(NCCc3ccccc3)nc21 [Compound 15, 8-N-pyrrolidinyl-6-trifluoromethyl-9-methyl-2-phenethylamino purine] |  |  | 
2.51 µM | > 10 µM | > 10 µM | > 10 µM | 2 µM | Cn1c(I)nc2c(C(F)(F)F)nc(NCCc3ccccc3)nc21 [Compound 12, 8-iodo-6-trifluoromethyl-9-methyl-2-phenethylamino purine] |  |  | 
2 µM | > 10 µM | 7.94 µM |  |  | Cn1c(-c2ccccc2)nc2c(C(F)(F)F)nc(NCCc3ccccc3)nc21 [Compound 19, 8-phenyl-6-trifluoromethyl-9-methyl-2-phenethylamino purine] |  |  | 
0.501 µM | > 10 µM | > 10 µM |  |  | Cn1c(C#Cc2ccccc2)nc2c(C(F)(F)F)nc(NCCc3ccccc3)nc21 [Compound 23, 8-phenylacetylene-6-trifluoromethyl-9-methyl-2-phenethylamino purine] |  |  | 
1.26 µM | > 10 µM | 7.94 µM | > 10 µM | 0.158 µM | Cn1c(-c2ccco2)nc2c(C(F)(F)F)nc(NCCc3ccccc3)nc21 [Compound 13, 8-(furan-2-yl)-6-trifluoromethyl-9-methyl-2-phenethylamino purine] |  |  | 
1 µM | 7.94 µM | > 10 µM |  |  | Cn1c(-c2cccc(F)c2)nc2c(C(F)(F)F)nc(NCCc3ccccc3)nc21 [Compound 20, 8-(3-fluorophenyl)-6-trifluoromethyl-9-methyl-2-phenethylamino purine] |  |  | 
5.01 µM | > 10 µM | > 10 µM |  |  | Cn1c(/C=C\c2ccc(C(F)(F)F)cc2)nc2c(C(F)(F)F)nc(NCCc3ccccc3)nc21 [Compound 25, 8-Z-(4-trifluoromethylstyryl)-6-trifluoromethyl-9-methyl-2-phenethylamino purine] |  |  | 

Second part, the compound before the results:

Structure (SMILES) | Ki [1] | Ki [2] | Ki [3] | EC50 [4] | Kb [4] | Adenosine receptor affinity (binding) A3 pKi [1] | Adenosine receptor affinity (binding) A1 pKi [2] | Adenosine receptor affinity (binding) A2A pKi [3]
Cn1cnc2c(C(F)(F)F)nc([N+](=O)[O-])nc21 [Compound 1, 2-nitro-6-trifluoromethyl-9-methyl purine] | 3.98 µM | > 10 µM | > 10 µM |  |  |  |  | 
OC[C@H]1O[C@@H](n2cnc3c(C(F)(F)F)nc(N4CCCCC4)nc32)[C@H](O)[C@@H]1O [Compound 3, 2-piperidinyl-6-trifluoromethyl-9-β-D-ribofuranosyl purine] |  |  |  |  |  | 5.4 | <5.0 | <5.0
CC(C)(C)OC(=O)OCn1cnc2c(C(F)(F)F)nc(NCCc3ccccc3)nc21 [Compound 28, 6-trifluoromethyl-2-phenetylamino-9-BocOM-purine] | 0.0251 µM | 2.51 µM | > 10 µM |  |  |  |  | 
Cn1c(N2CCOCC2)nc2c(C(F)(F)F)nc(NCCc3ccccc3)nc21 [Compound 17, 8-N-morpholinyl-6-trifluoromethyl-9-methyl-2-phenethylamino purine] | 1.58 µM | > 10 µM | > 10 µM |  |  |  |  | 
OC[C@H]1O[C@@H](n2cnc3c(C(F)(F)F)nc(NCCc4ccc(O)cc4)nc32)[C@H](O)[C@@H]1O [Compound 27, 2-(4-hydroxy-phenethylamino)-6-trifluoromethyl-9-β-D-ribo-furanosyl purine] | 0.01 µM | 5.01 µM | 3.16 µM |  |  |  |  | 
Cn1c(NC2CCCC2)nc2c(C(F)(F)F)nc(NCCc3ccccc3)nc21 [Compound 18, 8-cyclopentylamino-6-trifluoromethyl-9-methyl-2-phenethylamino purine] | 0.631 µM | 3.16 µM | 1.26 µM |  |  |  |  | 
OC[C@H]1O[C@@H](n2cnc3c(C(F)(F)F)nc(OCCc4ccccc4)nc32)[C@H](O)[C@@H]1O [Compound 30, 2-phenethyloxy-6-trifluoromethyl-9-β-D-ribofuranosyl purine] | 0.158 µM | 1.58 µM | 3.16 µM |  |  |  |  | 
Cn1c(N2CCCCC2)nc2c(C(F)(F)F)nc(NCCc3ccccc3)nc21 [Compound 16, 8-N-piperidinyl-6-trifluoromethyl-9-methyl-2-phenethyl amino purine] | 3.98 µM | > 10 µM | 15.8 µM |  |  |  |  | 
CC(C)(C)OC(=O)OCn1cnc2c(C(F)(F)F)nc(NCc3ccccc3)nc21 [Compound 29, 6-trifluoromethyl-2-benzylamino-9-BocOM-purine] | 0.0794 µM | 2.51 µM | 20 µM | > 10 µM | 7.94 µM |  |  | 
